# According to patent US7579006B2, “Method of treating immune pathologies with low dose estrogen” (Oregon Health and Science University, priority 2000, dated 2009):
# Like-named read-outs stand apart in the source and are kept apart here.
# Legend:
# [1] = tested on: DLN cells; assay: PLP 139-151 induced cytokine production by DLN cells (ELISA); format: in vivo, mice; conditions: 48-72 hours after PLP 139-151 stimulation
# Protocol: Cytokine detection by ELISA. DLN cells were cultured at 4×10^6/ml and stimulated with the appropriate antigen in 24 well culture plates. Cell culture supernatants were recovered between 48-72 hr and frozen at −70° C. until needed for the cytokine assay. Measurement of cytokines was performed by ELISA using cytokine specific capture and detection antibodies (Pharmingen). Standard curves for each assay were generated using recombinant mouse cytokines (Pharmingen), and the concentration of cytokines in the cell supernatants was determined by interpolation from the appropriate standard curve. IFN-γ, TNF-α and IL-12 were chosen as representative Th1 cytokines, while IL-4 and IL-10 were measured as representative Th2 cytokines.
# To determine if low dose estrogen therapy altered cytokine secretion patterns, DLN cells were prepared from individual mice at the peak of clinical EAE and cytokine levels were measured 48-72 hours after in vitro stimulation with PLP 139-151. IFN-γ, IL-12, and TNF-α were used as representative Th1 cytokines while IL-4, and IL-10 were used as representative Th2 cytokines. […] Despite the lack of statistical significance, the trend towards higher Th1 and lower Th2 cytokines points towards a subtle shift in the Th1/Th2 balance. The shift can be seen more clearly when the cytokine response of each individual mouse is plotted as a ratio of IFN-γ to IL-10 (FIG. 5C). There was a marked decrease in the frequency of high Th1 responder mice in the E2 and E3 treated groups when compared to placebo animals that approached significance (p=0.09 for the 5.0 mg E3 treated mice). Additionally, no informative trends were detected in IL-4 secretion (FIG. 5D), and TNF-α secretion was very often below the limits of detection for the assay (<31.25 pg/ml). Modest changes in cytokine responses induced by low dose estrogen therapy were also observed in the B10.PL model and were consistent with the data described for the SJL model.
# [2] = tested on: B10.PL mice; assay: EAE induced with MBP Ac1-11 in B10.PL mice; format: in vivo
# [3] = tested on: male SJL mice; assay: EAE induced with PLP 139-151 in male SJL mice; format: in vivo
# [4] = tested on: draining lymph node (DLN) cells; assay: Flow cytometry of activation and adhesion markers on DLN cells of SJL mice with EAE; format: in vivo; conditions: DLN cells at peak of EAE
# Protocol: Immunofluorescent staining for flow cytometry. Draining lymph node (DLN) cells were removed during the peak of clinical symptoms and analyzed for the expression of cell surface proteins by fluorescent staining ex vivo. The following fluorochrome conjugated antibodies obtained from Pharmingen Inc. (San Diego, Calif.) were used for the direct staining of DLN cells: anti-CD4, anti-CD25, anti-CD69, anti-CD95L, anti-CD44, anti-CD62L, anti-CD49d. Two-color immunofluorescent analysis was performed on a FACScan instrument (Becton Dickinson, Mountain View, Calif.) using Cellquest software. For each experiment the cells were stained with isotype control antibodies to establish background staining, and to set the quadrants prior to calculating the percent positive staining cells. […] Alterations in the expression of adhesion or activation markers on T cells are often indicative of functional changes in the cell. Monoclonal antibodies specific for a number of these markers were used to assess whether estrogen therapy altered their expression. Draining lymph node (DLN) cells were recovered from mice during the peak of clinical EAE, incubated with the indicated fluorochrome conjugated monoclonal antibodies, and surface expression measured by fluorescent activated cell analyzer.
# [5] = tested on: female SJL mice; assay: EAE induced with PLP 139-151 in female SJL mice (clinical scores, spinal cord histopathology); format: in vivo; conditions: for Demyelinated foci/section / Inflammatory foci/section: spinal cord at peak of disease
# [6] = cited from earlier work
smiles,measurement,setting,value
"C[C@]12CC[C@@H]3c4ccc(O)cc4CC[C@H]3[C@@H]1C[C@@H](O)[C@@H]2O [Estriol, estriol]",IL-10 secretion by DLN cells,[1],modest increase
same,IL-12 secretion by DLN cells,[1],small decrease
same,secretion of IFN-γ by DLN cells,[1]; p>0.10,consistently lower
same,CDI,[2]; 1.5 mg/pellet (low),1.9 ± 1.7
same,Incidence,[2]; 1.5 mg/pellet (low),5/8
same,Incidence (%),[2]; 1.5 mg/pellet (low),38%
same,Onset,[2]; 1.5 mg/pellet (low),30.3 ± 0.9 days
same,Peak (disease score),[2]; 1.5 mg/pellet (low),1.38 ± 0.8
same,CDI,[2]; 5 mg/pellet (pregnancy),1.0 ± 0.5
same,Incidence,[2]; 5 mg/pellet (pregnancy),3/8
same,Incidence (%),[2]; 5 mg/pellet (pregnancy),38%
same,Onset,[2]; 5 mg/pellet (pregnancy),31.3 ± 0.7 days
same,Peak (disease score),[2]; 5 mg/pellet (pregnancy),0.71 ± 0.4
same,inhibitory effect on EAE compared with 17β-estradiol,[2]; B10.PL females,equivalent inhibitory effect on EAE
same,CDI,[3]; 2.5 mg/pellet,3.2 ± 2.5
same,Incidence,[3]; 2.5 mg/pellet,2/3
same,Incidence (%),[3]; 2.5 mg/pellet,67%
same,Onset,[3]; 2.5 mg/pellet,16.5 ± 0.7 days
same,Peak (disease score),[3]; 2.5 mg/pellet,0.67 ± 0.6
same,CDI,[3]; 5.0 mg/pellet,2.6 ± 5.3
same,Incidence,[3]; 5.0 mg/pellet,1/4
same,Incidence (%),[3]; 5.0 mg/pellet,25%
same,Onset,[3]; 5.0 mg/pellet,16.0 ± 0 days
same,Peak (disease score),[3]; 5.0 mg/pellet,0.50 ± 1.0
same,"CD4, % of Total",[4]; 2.5 mg pellet,45%
same,"CD25, % of CD4+ T cells",[4]; 2.5 mg pellet,5.5%
same,"CD44, % of CD4+ T cells",[4]; 2.5 mg pellet,36%
same,"CD62L, % of CD4+ T cells",[4]; 2.5 mg pellet,12%
same,"CD69, % of CD4+ T cells",[4]; 2.5 mg pellet,7.5%
same,"CD49d, % of CD4+ T cells",[4]; 2.5 mg pellet,36%
same,"FASL, % of CD4+ T cells",[4]; 2.5 mg pellet,3.1%
same,"CD4, % of Total",[4]; 5.0 mg pellet,47%
same,"CD25, % of CD4+ T cells",[4]; 5.0 mg pellet,6.4%
same,"CD44, % of CD4+ T cells",[4]; 5.0 mg pellet,38%
same,"CD62L, % of CD4+ T cells",[4]; 5.0 mg pellet,8.8%
same,"CD69, % of CD4+ T cells",[4]; 5.0 mg pellet,8.3%
same,"CD49d, % of CD4+ T cells",[4]; 5.0 mg pellet,37%
same,"FASL, % of CD4+ T cells",[4]; 5.0 mg pellet,2.7%
same,CDI (cumulative disease index),[5]; 1.5 mg/pellet (low),9.3 ± 2.6
same,Incidence,[5]; 1.5 mg/pellet (low),6/10
same,Incidence (%),[5]; 1.5 mg/pellet (low),(60%)
same,Onset,[5]; 1.5 mg/pellet (low),16.4 ± 0.7 days
same,Peak (disease score),[5]; 1.5 mg/pellet (low),2.0 ± 0.0
same,Relapse,[5]; 1.5 mg/pellet (low),0/3
same,Relapse (%),[5]; 1.5 mg/pellet (low),(0%)
same,Demyelinated foci/section,[5]; 2.5 mg pellet,0.8 ± 0.2 foci/section
same,Inflammatory foci/section,[5]; 2.5 mg pellet,1.2 ± 0.6 foci/section
same,Demyelinated foci/section,[5]; 5.0 mg pellet,0.3 ± 0.2 foci/section
same,Inflammatory foci/section,[5]; 5.0 mg pellet,0.9 ± 0.5 foci/section
same,CDI (cumulative disease index),[5]; 5.0 mg/pellet (pregnancy),6.5 ± 9
same,Incidence,[5]; 5.0 mg/pellet (pregnancy),2/5
same,Incidence (%),[5]; 5.0 mg/pellet (pregnancy),(40%)
same,Onset,[5]; 5.0 mg/pellet (pregnancy),33.5 ± 5.0 days
same,Peak (disease score),[5]; 5.0 mg/pellet (pregnancy),1.4 ± 2.2
same,Relapse,[5]; 5.0 mg/pellet (pregnancy),0/2
same,Relapse (%),[5]; 5.0 mg/pellet (pregnancy),(0%)
same,CDI (cumulative disease index),[5]; 15.0 mg/pellet (high),4.4 ± 3.5
same,Incidence,[5]; 15.0 mg/pellet (high),5/10
same,Incidence (%),[5]; 15.0 mg/pellet (high),(50%)
same,Onset,[5]; 15.0 mg/pellet (high),23.8 ± 9 days
same,Peak (disease score),[5]; 15.0 mg/pellet (high),1.4 ± 1.1
same,Relapse,[5]; 15.0 mg/pellet (high),0/1
same,Relapse (%),[5]; 15.0 mg/pellet (high),(0%)
same,comparison of E2 and E3 in incidence or severity of EAE,"[5]; Fisher exact test, same animal model",equally protective
same,serum concentration from 60-day release pellet,[6]; 0.025 mg pellet,10 to 20 pg/mL
same,serum concentration from 60-day release pellet,[6]; 0.1 mg pellet,40 to 50 pg/mL
same,serum concentration from 60-day release pellet,[6]; 0.36 mg pellet,150 to 200 pg/mL
same,serum concentration from 60-day release pellet,[6]; 1.5 mg pellet,"800-1,000 pg/ml"
same,serum concentration from 60-day release pellet,[6]; 2.5 mg pellet,"2,000-3,000 pg/ml"
same,serum concentration from 60-day release pellet,[6]; 5 mg pellet,"5,000-6,000 pg/ml"
same,serum concentration from 60-day release pellet,[6]; 15 mg pellet,"10,000-15,000 pg/ml"
